{"source": "paper PMC4109680", "about": "“Identification and Preclinical Pharmacology of the γ-Secretase Modulator BMS-869780” (International Journal of Alzheimer's Disease, 2014)", "key": {"Aβ1-42 (MEF PS1wt)": {"tested_on": "Aβ1-42 (MEF PS1wt)", "test": "Aβ1-42 ELISA in MEF dKO cultures cotransfected with APP-CTF and human presenilin-1 wild type", "type": "cell-based", "conditions": "wild type human presenilin-1", "procedure": "H4-APPsw cell cultures were maintained on Dulbecco's modified Eagle's medium (DMEM) supplemented with L-glutamine (2 mM), fetal bovine serum (10%), and G418 (100 μg/mL). […] Aβ1-42 and Aβ1-40 assays, and Notch inhibition assays, were carried out as described previously. Mouse embryonic fibroblasts deficient in PS1 and PS2 (MEF dKO) were passaged twice per week in DMEM/F-12 medium, consisting of a 1 : 1 mixture of DMEM and F-12 nutrient mixture supplemented with 10% fetal bovine serum, penicillin, and streptomycin. For expression of human presenilin-1 in MEF dKO cells, the full length human presenilin-1 cDNA open reading frame was cloned between the BamHI and XhoI sites of the vector pcDNA5/FRT (Invitrogen), placing presenilin-1 expression under the control of the CMV promoter. […]\nIC50 determinations for Aβ1-42 and Aβ1-40 in H4-APPsw cultures in 384-well format were determined using homogeneous time-resolved fluorescence immunoassays as previously described. […] In other experiments using H4-APPsw cultures, Aβ was quantified by ELISA; for Aβ1-42 the combination of monoclonal antibodies was 26D6 and 565-HRP; for Aβ1-40 it was TSD and 26D6-HRP, and for Aβ1-x it was 4G8 and 26D6-HRP. […] For Aβ in transiently transfected PS1/PS2 dKO fibroblasts, Aβ1-42 was quantified using an ELISA kit (WACO), and Aβ1-40 was quantified by ELISA as described above for H4-APPsw cultures. […]"}, "CYP3A4 mRNA": {"tested_on": "CYP3A4 mRNA", "test": "CYP3A4 mRNA expression in primary human hepatocytes", "type": "cell-based", "conditions": "two donors, relative to rifampicin 10 μM", "procedure": "Figure 10 BMS-869780 caused PXR activation in vitro and lipidosis in rat liver. (a) PXR activation in the presence of BMS-869780 was evaluated in HepG2 cell cultures using a luciferase transcriptional reporter construct (●), or by assay of CYP3A4 mRNA levels in primary human hepatocyte (PHH) cultures from two individual donors (▲ and ▼). Activation in both assays is expressed as % relative to activation in the presence of rifampicin, 10 μM, in parallel cultures. (b) Liver section from vehicle-dosed rats. (c) Liver section from rats given 4 daily doses of BMS-869780 at 100 mg/kg."}}}
{"smiles": "COc1cc(Nc2nc3n(n2)CCCC[C@H]3c2ccc(F)cc2)ccc1-n1cnc(Cl)c1", "note": "[BMS-869780]", "values": [{"measurement": "IC50", "setting": "Aβ1-42 (MEF PS1wt)", "result": 7.7, "unit": "nM"}, {"measurement": "concentrations at which CYP3A4 mRNA transcription was activated", "setting": "CYP3A4 mRNA", "result": "≥ 0.3", "unit": "µM"}]}
